Measured values published in patent US12070457B2, “Substituted pyridines, pyridazines, pyrimidines, and 1,2,3-triazines as bruton's tyrosine kinase inhibitors” (HUTCHISON MEDIPHARMA LIMITED, priority 2020, dated 2024).
pIC50: −log10 of the molar value.

Biological target: BTK recombinant protein (Homo sapiens (Human), UniProt Q06187)
Experiment: Determination of biochemical BTK (Z'-LYTE kinase assay)
Description: Example 2 Determination of Biochemical BTK
1. Reagents and Materials
• BTK recombinant protein: Invitrogen, Cat #PV3363; • Z′-LYTE® kinase test kit-tyrosine 1 peptide: Invitrogen, Cat #PV3190; • 384-well low-flange black flat-bottomed polystyrene NBS microplate, no lid, no sterilization: Corning, Cat #3575; • 96-well polystyrene conical-bottomed MicroWell™ plate, sealed with a lid: Thermo Scientific™ Nunc™, Cat #277143; • Envision multi-mode plate reader: PerkinElmer; • Mixmate® shaker: Eppendorf; • TS-2102 shaking incubator: TENSUC; 2. Methods
Z′-LYTE® biochemical assay employs a fluorescence resonance energy transfer (FRET)-based, coupled-enzyme format and is based on the differential sensitivity of phosphorylated and non-phosphorylated peptides to proteolytic cleavage. Both ends of the short peptide substrate are labeled with two fluorescent groups to form a FRET paired combination. In the primary reaction (the Kinase Reaction), the kinase transfers the γ-phosphate of ATP to a single […] residue on the short peptide substrate. In the secondary reaction (the development reaction), the non-phosphorylated short peptides were recognized and cleaved by a site-specific protease (the development reagent). Phosphorylated short peptides can resist such cleavage. Cleavage of short peptides can disrupt the donor (such as coumarin) and receptor fluorophores (fluorescein) on the short peptides, while the phosphorylated short peptides can maintain FRET. The calculation method of the ratio is as follows, and the ratio of the respective emission signals generated by the donor fluorophores emitted (after excitation at 400 nm) to the receptors is calculated. Emission signal ratio=emitted light by coumarin (445 nm)/emitted light by fluorescein (520 nm). If the FRET short peptide is phosphorylated (such as no kinase inhibitor), the emitted light ratio will remain in a lower level. If the FRET short peptide is non-phosphorylated (such as kinase inhibitor), the emitted light ratio will be in a higher level. In this way, the inhibitory effects of different compound inhibitors on BTK kinase activity would be distinguished.
The experiment were carried out according to the instructions of the Z′-LYTE® kinase test kit-tyrosine 1 peptide. Reagent preparation: 1.33× kinase buffer: 5× kinase buffer was diluted with water to 1.33× kinase buffer; an enzyme solution: the kinase was dissolved in 1.33× kinase buffer with the final working concentration being 3.32 nM; a short peptide solution: a short peptide stock solution (1 mM dissolved in DMSO) was dissolved in 1.33× kinase buffer with the final working concentration being 2 μM; Z′-LYTE Tyr01 phosphorylated short peptide solution, 0.6 μl of stock solution (1 mM dissolved in DMSO) was dissolved in 149.4 μl of 1.33× kinase buffer; an ATP solution: an ATP stock solution (10 mM aqueous solution) was dissolved in 1.33× kinase buffer with the final working concentration being 32 μM; a color-developing solution: color-developing solution B was dissolved in color-developing buffer with the final working concentration being 1× color-developing solution; 4× compound preparation: the compound was diluted in 3-fold gradient concentration to finally obtain 4% DMSO aqueous solution containing different concentrations of the compound, with the final working concentration being 3000, 1000, 333.33, 111.11, 37.04, 12.35, 4.12, 1.37 nM, 8 concentration points in total.
Specific steps of the experiment: In the experiment, there were three control groups, each with 8 replicate wells, which were C1 100% inhibition group (no ATP), C2 0% inhibition group (with ATP), and C3 100% phosphorylation group, respectively. 2.5 μl of serially diluted compound was added to each well of a 384-well plate, with double replicate wells, and 4% DMSO solution was added to wells C1, C2, and C3. […]

BTK recombinant protein, sequence (Q06187 whole entry): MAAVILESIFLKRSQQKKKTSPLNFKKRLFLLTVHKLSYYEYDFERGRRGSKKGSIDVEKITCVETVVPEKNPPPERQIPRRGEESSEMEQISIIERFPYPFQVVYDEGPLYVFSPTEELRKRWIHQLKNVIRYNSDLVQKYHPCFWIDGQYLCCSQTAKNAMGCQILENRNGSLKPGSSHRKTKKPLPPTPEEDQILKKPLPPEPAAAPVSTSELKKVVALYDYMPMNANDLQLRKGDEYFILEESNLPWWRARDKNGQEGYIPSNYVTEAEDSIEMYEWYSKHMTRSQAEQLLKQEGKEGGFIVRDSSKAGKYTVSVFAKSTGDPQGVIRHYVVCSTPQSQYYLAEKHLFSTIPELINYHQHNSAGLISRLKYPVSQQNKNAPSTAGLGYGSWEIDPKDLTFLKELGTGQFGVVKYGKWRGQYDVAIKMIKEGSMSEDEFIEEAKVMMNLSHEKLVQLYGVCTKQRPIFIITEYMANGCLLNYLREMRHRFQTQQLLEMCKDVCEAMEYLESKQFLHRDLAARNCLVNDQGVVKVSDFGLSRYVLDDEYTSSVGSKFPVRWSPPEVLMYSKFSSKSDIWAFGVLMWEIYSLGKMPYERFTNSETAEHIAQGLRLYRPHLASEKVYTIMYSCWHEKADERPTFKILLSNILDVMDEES

pIC50: 8.10
Compound: C[C@H]1CN(C2COC2)CCN1c1ccc(Nc2cc(-c3ccnc(-n4ccn5c6c(cc5c4=O)CC(C)(C)C6)c3CO)cn(C)c2=O)nc1 [Compound 19]
